{"source": "patent US8163743B2", "about": "“4-carboxamide indazole derivatives useful as inhibitors of PI3-kinases” (GlaxoGroupLimited, priority 2008, dated 2012)", "key": {"[1]": {"system": "IFN-γ or IL-5 production in human PBMC", "assay": "Inhibition of Interferon-Gamma (IFN-γ) or IL-5 production in human PBMC assay (MSD technology)", "type": "cell-based", "settings": "human PBMC assay or a similar assay; CYTOSTIM stimulation, 20 hours; read-out: mean pIC50 (converted)", "experimental": "Inhibition of Interferon-Gamma (IFN-γ) or IL-5 Production in Human PBMC (Peripheral Blood Mononuclear Cell) Assay (MSD Technology)\nA 96-well plate (96 MicroWell™ Plates Nunclon™—High Flange Design, Fisher Scientific UK, Loughborough, UK) is prepared by initially adding to column 1 ca. 10 mM of test compound dissolved in DMSO. […] The compound is further diluted with DMSO into columns 2 to 9 by 8 successive 4-fold dilutions using the Biomek® 2000 Laboratory Automation Workstation (Beckman Coulter, Inc., Fullerton, Calif.). Column 10 is used as a DMSO negative control (High Signal, 0% response), whilst column 11, which contains 10 mM of the pan-PI3K inhibitor wortmannin, is used as a positive control (Low Signal, 100% response). About 1 μl of compound is transferred to the compound plate using the Biomek® FX.\nPBMC cells (peripheral blood mononuclear cells) are prepared from heparinised human blood (using 1% v/v Heparin Sodium 10001 U/ml Endotoxin Free, Leo Laboratories Ltd., Dublin. Ireland, Cat No: PL0043/0149) from normal volunteers using the Accuspin™ System-Histopaque®-1077 essentially (Sigma-Aldrich Company Ltd., Gillingham Dorset, UK). About 20 ml of blood is overlaid onto 15 ml Histopaque® in Accuspin™ tubes. The tube is then centrifuged at about 800 g for ca. 20 minutes. The cells are collected from the interface, washed by centrifugation (ca. 1300 g, ca. 10 minutes) and resuspended in assay medium (Low endotoxin RPMI1640 medium, Cat No: 31870-025, Invitrogen Corporation Invitrogen Ltd, Paisley, UK) containing 10% foetal calf serum (Invitrogen Corporation, Cat No: CT2507), 2 mM L-glutamine (Invitrogen Corporation, Cat No: 25030024), 10 U/ml penicillin and 10 μg/ml streptomycin (Invitrogen Corporation, Cat No: 15140-122). Viable cells are counted by trypan blue staining and diluted to 6.6×10^5 viable cells/ml. About 150 μl of diluted cells are then added to the compound plate and incubated 37 degrees C. for 1 hour prior to addition of 50 μl of 0.125% (v/v) CYTOSTIM (Cat No: 130-092-173, Miltenyi Biotec Ltd., Bisley, Surrey, UK) diluted in assay medium. The assay plate is then incubated at 37° C., 5% CO2, for 20 hours. The supernatant is removed and the concentrations of IFN-γ and IL-5 are determined by electrochemiluminescence assay using the Meso Scale Discovery (MSD) technology (Meso Scale Discovery, Gaithersburg, Md., USA) as described below.\nSupernants were assayed using MSD (Meso Scale Discovery) technology using either the ultra sensitive IFN-γ single plex or the IFN-γ/IL-5 multiplex 96-well plates (MA6000). For the IL-5/IFNg multiplex, Human Serum Cytokine Assay Diluent (25 μl) is added to the plates precoated with anti-cytokine antibody and then incubated for 24 hours at 4° C. to prevent non-specific binding. This blocking step is not required for the Ultrasensitive IFN-γ plates. About 25 μl of supernatant from the PBMC plate is then transferred from columns 1-11 to columns 1-11 of the MSD plate using the Biomek FX. About 25 μl of standard (IFN-γ Cat No. Calibrator C0AE, IL-5 Cat No. Calibrator C01AJ, Meso Scale Discovery) are added to column 12 of the MSD plate to generate a standard calibration curve (about 0 to 10000 pg/ml final). Plates are washed after 2 hours shaking with a Skanwasher 300 version B (Skatron Instruments AS. PO Box 8, N-3401 Lier, Norway). […] About 150 μl of Read Buffer T (2×) is added to the plates, which are then read on a MSD Sector 6000. […]"}, "CK2 protein kinase": {"biological_target": "CK2 protein kinase (Homo sapiens, UniProt P68400)", "sequence (P68400 whole entry)": "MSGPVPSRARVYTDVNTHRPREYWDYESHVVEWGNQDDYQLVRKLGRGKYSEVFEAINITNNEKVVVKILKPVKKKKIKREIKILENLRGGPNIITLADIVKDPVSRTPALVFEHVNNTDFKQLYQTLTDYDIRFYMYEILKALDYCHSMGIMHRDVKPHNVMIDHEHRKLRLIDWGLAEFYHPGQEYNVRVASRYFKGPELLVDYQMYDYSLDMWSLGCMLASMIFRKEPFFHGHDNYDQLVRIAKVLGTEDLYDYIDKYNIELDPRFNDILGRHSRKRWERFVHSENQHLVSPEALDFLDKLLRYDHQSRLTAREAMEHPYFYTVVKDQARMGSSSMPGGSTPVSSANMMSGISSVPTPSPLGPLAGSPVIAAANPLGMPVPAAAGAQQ", "settings": "background, literature; cited from earlier work"}}}
{"compound": "COc1ncc(-c2cc(NC(=O)c3csc(CN4C[C@@H](C)O[C@@H](C)C4)n3)c3cn[nH]c3c2)cc1NS(C)(=O)=O", "note": "[2-{[(2R,6S)-2,6-dimethyl-4-morpholinyl]methyl}-N-(6-{6-(methyloxy)-5-[(methylsulfonyl)amino]-3-pyridinyl}-1H-indazol-4-yl)-1,3-thiazole-4-carboxamide]", "values": [{"measurement": "IC50", "setting": "[1]", "value": "≤ 10", "unit": "µM"}]}
{"compound": "COc1ncc(-c2cc(NC(=O)c3csc(CN4C[C@@H](C)O[C@@H](C)C4)n3)c3cn[nH]c3c2)cc1NS(=O)(=O)c1ccc(F)cc1F", "note": "[Example 94, N-{6-[5-{[(2,4-Difluorophenyl)sulfonyl]amino}-6-(methyloxy)-3-pyridinyl]-1H-indazol-4-yl}-2-{[(2R,6S)-2,6-dimethyl-4-morpholinyl]methyl}-1,3-thiazole-4-carboxamide]", "values": [{"measurement": "melting point", "value": "211 to 212", "unit": "°C"}]}
{"compound": "O=c1cc(N2CCOCC2)oc2c(-c3ccccc3)cccc12", "note": "[LY294002]", "values": [{"measurement": "IC50", "setting": "CK2 protein kinase", "value": "5 to 10", "unit": "µM"}]}
{"compound": "COc1ncc(-c2cc(NC(=O)c3csc(CN4C[C@@H](C)O[C@@H](C)C4)n3)c3cn[nH]c3c2)cc1NS(=O)(=O)c1ccc(F)cc1F", "note": "[N-{6-[5-{[(2,4-difluorophenyl)sulfonyl]amino}-6-(methyloxy)-3-pyridinyl]-1H-indazol-4-yl}-2-{[(2R,6S)-2,6-dimethyl-4-morpholinyl]methyl}-1,3-thiazole-4-carboxamide]", "values": [{"measurement": "IC50", "setting": "[1]", "value": "≤ 10", "unit": "µM"}]}
{"compound": "COc1ncc(-c2cc(NC(=O)c3csc(CN4C[C@@H](C)O[C@@H](C)C4)n3)c3cnn(C)c3c2)cc1NS(C)(=O)=O", "note": "[2-{[(2R,6S)-2,6-dimethyl-4-morpholinyl]methyl}-N-(1-methyl-6-{6-(methyloxy)-5-[(methylsulfonyl)amino]-3-pyridinyl}-1H-indazol-4-yl)-1,3-thiazole-4-carboxamide]", "values": [{"measurement": "IC50", "setting": "[1]", "value": "≤ 10", "unit": "µM"}]}
{"compound": "COc1ncc(-c2cc(NC(=O)c3csc(CN4C[C@@H](C)O[C@@H](C)C4)n3)c3cn[nH]c3c2)cc1NS(=O)(=O)CC(F)(F)F", "note": "[2-{[(2R,6S)-2,6-dimethyl-4-morpholinyl]methyl}-N-[6-(6-(methyloxy)-5-{[(2,2,2-trifluoroethyl)sulfonyl]amino}-3-pyridinyl)-1H-indazol-4-yl]-1,3-thiazole-4-carboxamide]", "values": [{"measurement": "IC50", "setting": "[1]", "value": "≤ 10", "unit": "µM"}]}
{"compound": "COc1ccccc1S(=O)(=O)Nc1cc(-c2cc(NC(=O)c3csc(CN4C[C@@H](C)O[C@@H](C)C4)n3)c3cn[nH]c3c2)cnc1OC", "note": "[2-{[(2R,6S)-2,6-dimethyl-4-morpholinyl]methyl}-N-{6-[6-(methyloxy)-5-({[2-(methyloxy)phenyl]sulfonyl}amino)-3-pyridinyl]-1H-indazol-4-yl}-1,3-thiazole-4-carboxamide]", "values": [{"measurement": "IC50", "setting": "[1]", "value": "≤ 10", "unit": "µM"}]}
